Results taken from patent US6410545B1, “Lipid lowering quinazoline dietary supplement composition” (Parker Hughes Institute, priority 1998, dated 2002).

How the values were obtained:
apo e−/− mice = experiment: Serum total cholesterol in apolipoprotein E deficient mice; assay type: in vivo; conditions: apo e−/− (C57B1/6) mice, Western diet two weeks, then drug 1 week at 40 mg/kg/day
Experimental: Three- to four-week old apolipoprotein E deficient (apo E^−/−) mice were the progeny of breeding pairs of apo E knockout (apo EKO) mice obtained from Jackson Labs. (Bar Harbor, Me., USA). Mice were fed either regular rodent chow (5% fat and 0% cholesterol) (Teklad-LM 485, Harlan Teklad, Madison, Wis., USA), the Paigen's cocoa butter diet, or the Western diet (21.22% fat and 0.2% cholesterol) (Harlan Teklad, Madison, Wis., USA) for two weeks prior to treatment.
(§1) Animals were treated with test compounds by intraperitoneal injection daily for 7 days. A range of doses was administered. Control animals received vehicle alone. The effect of quinazoline derivatives on total cholesterol, LDL, HDL, liver enzymes, and glucose was analyzed. The mice tissues were also examined histologically.
(§2) Serum total cholesterol was measured enzymatically using the cholesterol kit from Sigma Chemical Co. (St. Louis, Mo., USA). For liver tissue lipid measurements, lipids were extracted from homogenized hepatic tissues using the method of Bligh and Dyer (Bligh, et al., Can. J. Biochem. Phys. 1959, 37:911-917). One gram of liver tissue was homogenized in 1 ml of distilled water and extracted with 4 ml of chloroform/methanol (1:1, v/v). The chloroform phase containing the lipids was evaporated under a stream of nitrogen, the lipids dissolved in 100 μL of isopropanol, and subjected to cholesterol determination as described above. Triglyceride (TG) contents were determined using the TG kit from Sigma Chemical Co.
On regular rodent chow, the serum total cholesterol level of apo e^−/− mice was 836±57 mg/dL (n=47). After one week therapy with 8 mg/kg/day WHI-P164 (n=12), the mean serum total cholesterol level was reduced to 551±29 mg/dL (p=0.02).
When challenged with a cholesterol-rich diet, these animals developed frank hypercholesterolemia due to delayed clearance of intestinal chylomicrons which shuttle the dietary cholesterol from the intestine to the liver. In the present study, all of the 46 ApoE-deficient mice that were fed Western diet (14) became severely hypercholesterolemic with a mean serum total cholesterol level of 1491±59 mg/dL. One week WHI-P164 therapy reduced the mean serum total cholesterol level of hypercholesterolemic apo e^−/− mice to 1194±84 mg/dL (p=O.006) at a dose level of 8 mg/kg/day (n=19) and to 876±57 mg/dL (p<0.0001) at a dose level of 40 mg/kg/day (n=17) (Table 3).

[1] = tested on: hypercholesterolemic C57B⅙ mice; experiment: Serum total cholesterol in hypercholesterolemic C57B⅙ mice on Paigen's cocoa butter diet; assay type: in vivo; conditions: apo e+/+ C57B1/6 mice, cocoa butter diet two weeks, then drug 1 week at 1.6 mg/kg/day i.p.
Experimental: Three- to four-week old C57B⅙ male mice (Taconic, Germantown, N.Y., USA) were kept in micro-isolator cages on a 12-hour day/night cycle and fed the Paigen's cocoa butter diet (15.8% fat, 1.25% cholesterol, and 0.5% sodium cholate) (Harlan Teklad, Madison, Wis., USA) for two weeks prior to initiation of lipid lowering therapy. Paigen's diet is described in Nishina et.al., 1993, J. Lipid Res. 34: 1413-1422.
as §1, §2
A high cholesterol and high fat diet was used to induce hypercholesterolemia in C57B⅙mice, using the methods described by Paigen, et al. (Nishina, et al., 1993, J. Lipid Res. 34:1413-1422) and as described for Example 1.

Compound	Serum total cholesterol (apo e−/− mice)	Serum total cholesterol [1]
COc1cc2ncnc(Nc3ccccc3O)c2cc1OC [WHI-P132, 4-(2′-Hydroxylphenyl)-amino-6,7-dimethoxyquinazoline]	1774 ± 61 mg/dL	
COc1cc2ncnc(Nc3ccc(O)cc3)c2cc1OC [WHI-P131, 4-(4′-Hydroxylphenyl)-amino-6,7-dimethoxyquinazoline]	1532 ± 77 mg/dL	433 ± 20 mg/dL
COc1cc2ncnc(Nc3ccc(C)c(Br)c3)c2cc1OC [WHI-P111, 4-(3′-Bromo-4′-methylphenyl)-amino-6,7-dimethoxyquinazoline]	1425 ± 92 mg/dL	406 ± 11 mg/dL
COc1cc2ncnc(Nc3ccc(O)c(Cl)c3)c2cc1OC [WHI-P197, 4-(3′-Chloro-4′-hydroxylphenyl)-amino-6,7-dimethoxyquinazoline]	1621 ± 146 mg/dL	372 ± 20 mg/dL
COc1cc2ncnc(Nc3ccc(O)c(Br)c3)c2cc1OC [WHI-P154, 4-(3′-Bromo-4′-hydroxylphenyl)-amino-6,7-dimethoxyquinazoline]	1492 ± 110 mg/dL	
COc1cc2ncnc(Nc3cc(Br)c(O)c(Br)c3)c2cc1OC [WHI-P97, 4-(3′,5′-Dibromo-4′-hydroxylphenyl)-amino-6,7-dimethoxyquinazoline]	1129 ± 46 mg/dL	413 ± 18 mg/dL
